Assays:
human M4 receptor = human M4 receptor (Homo sapiens (Human), UniProt P08173); test: In vitro M4 functional assay (intracellular calcium, FLiPR Tetra); format: cell-based; details: for EC50: CHOK1 cells stably expressing human M4 receptor and Gα16, calcium flux; for Emax: relative efficacy to an EC100 concentration of acetylcholine, read-out: M4 % RE
Description: (§1) In Vitro M4 &M2 Functional Assay
(§2) The functional activity of compounds at the M4 and M2 receptors was determined by measuring changes in the level of intracellular calcium ions caused by signalling cascades mediated by the receptor. Intracellular Calcium levels were measured using a calcium sensitive fluorescent dye, calcium 5 (Molecular Devices) The changes in fluorescence were monitored by a fluorescent imager, FLiPR Tetra (Molecular devices). Increases in intracellular calcium were readily detected upon activation of both receptors by the muscarinic receptor agonist Acetylcholine.
(§3) CHOK1 cells stably expressing human M4 or M2 receptor and co-expressing the accessory g-protein Gα16 were routinely grown as monolayers in Hams-F12 medium (Invitrogen) supplemented with 10% foetal bovine serum (FBS) (Hyclone), 500 ug/mL Geneticin and 250 ug/mL zeocin (both invitrogen) in 5% CO2 at 37° C. Once confluent is cells cryopreserved by freezing at −186° C. in freezing solution (90% FBS 10% DMSO) (Sigma-Aldrich Co.). Twenty-four hours prior to testing cells resuscitated and freezing media removed via centrifugation, cells then seeded in a black walled clear bottom 384 well plates (Corning) at a density of 15,000 cells/well in Hams F12 media supplemented with 10% FBS. On the day of assay, growth media was removed and replaced with 63 μl of Calcium 5 dye solution (Molecular Devices) in assay buffer (HBSS, 20 mM HEPES, 0.1% BSA, 1 mM Probenecid pH7.4 (Sigma-Aldrich Co.)) per well (each vial of Calcium 5 resuspended in 27 mL of assay buffer). Cells were then incubated for 45 minutes at 37° C., 5% CO2. Compound was serially diluted in DMSO (log/half log) before being diluted 1:20 with assay buffer. 7 μl of compound diluted in assay buffer was then added to cells on FLiPR tetra and fluorescence intensity measured for 5 minutes. EC50 values for compounds were determined from ten point half log scale dose-response studies and represent the concentration of compound required to […] maximal response. Curves were generated using the average of duplicate wells for each data point and analyzed using non-linear regression of four parameter dose response. Percentage Relative efficacy (RE) to an EC100 concentration of acetylcholine was reported for all compounds. The results are set out in Table 3 below in which the term “No Response” means that there was no significant response of calcium flux in the assay indicative of agonism.

human M2 receptor = human M2 receptor (Homo sapiens (Human), UniProt P08172); test: In vitro M2 functional assay (intracellular calcium, FLiPR Tetra); format: cell-based; details: for M2 EC50 / EC50: CHOK1 cells stably expressing human M2 receptor and Gα16, calcium flux, No Response = no significant response of calcium flux indicative of agonism; for activation at 10 µM: response at 10 μM compound, relative to an EC100 concentration of acetylcholine, read-out: M2 % RE @ 10 μM
Chain of human M2 receptor (P08172 whole entry): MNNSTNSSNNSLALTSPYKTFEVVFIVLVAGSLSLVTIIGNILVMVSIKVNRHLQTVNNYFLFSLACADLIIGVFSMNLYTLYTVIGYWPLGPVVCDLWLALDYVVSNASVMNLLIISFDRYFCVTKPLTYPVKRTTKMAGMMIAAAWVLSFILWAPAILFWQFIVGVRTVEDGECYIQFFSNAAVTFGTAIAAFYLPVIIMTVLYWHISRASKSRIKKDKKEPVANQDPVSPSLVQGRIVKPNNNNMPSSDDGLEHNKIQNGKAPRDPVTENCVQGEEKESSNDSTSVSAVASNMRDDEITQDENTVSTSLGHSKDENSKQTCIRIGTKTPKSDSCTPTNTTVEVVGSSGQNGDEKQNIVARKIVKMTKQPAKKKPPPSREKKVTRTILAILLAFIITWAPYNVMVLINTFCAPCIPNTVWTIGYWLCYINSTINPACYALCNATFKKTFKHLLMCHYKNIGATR
Description: as §1, §2, §3

Chain of human M4 receptor (P08173 whole entry): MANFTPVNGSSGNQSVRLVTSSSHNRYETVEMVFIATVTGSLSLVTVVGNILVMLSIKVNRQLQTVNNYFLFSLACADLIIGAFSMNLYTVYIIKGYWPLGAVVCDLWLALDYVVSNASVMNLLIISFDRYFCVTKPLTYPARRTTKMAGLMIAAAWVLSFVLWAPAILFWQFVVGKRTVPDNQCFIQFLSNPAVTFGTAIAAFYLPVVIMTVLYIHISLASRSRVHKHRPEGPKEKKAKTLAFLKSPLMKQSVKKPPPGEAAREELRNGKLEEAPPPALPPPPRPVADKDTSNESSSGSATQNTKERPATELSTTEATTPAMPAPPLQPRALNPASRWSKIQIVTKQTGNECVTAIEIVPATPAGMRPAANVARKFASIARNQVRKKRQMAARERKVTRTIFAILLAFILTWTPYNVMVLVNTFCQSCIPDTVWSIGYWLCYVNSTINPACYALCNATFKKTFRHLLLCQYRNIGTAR

EC50 (human M4 receptor) [nM]	Emax (human M4 receptor) [%]	M2 EC50 (human M2 receptor)	EC50 (human M2 receptor) [nM]	activation at 10 µM (human M2 receptor) [%]	M2 % RE (human M2 receptor; relative efficacy to an EC100 concentration of acetylcholine) [%]	Compound
1280	44	No Response	–	–	–	CCOC(=O)N1CCCC(N2CCC(c3nnc(C(C)C)o3)CC2)CC1 (stereo not drawn) [Example 15, Ethyl 4-(4-(5-isopropyl-1,3,4-oxadiazol-2-yl)piperidin-1-yl)azepane-1-carboxylate]
320	59	No Response	–	–	–	CCOC(=O)N1CCCC(N2CCC(n3cc(-c4ccc(Cl)cc4)cn3)CC2)CC1 (stereo not drawn) [Example 8, Ethyl 4-{4-[4-(4-chlorophenyl)-1H-pyrazol-1-yl]piperidin-1-yl}azepane-1-carboxylate]
810	50	No Response	–	–	–	CCOC(=O)N1CCCC(N2CCC(c3cc(-c4cccs4)n[nH]3)CC2)CC1 (stereo not drawn) [Example 17, Ethyl 4-{4-[3-(thiophen-2-yl)-1H-pyrazol-5-yl]piperidin-1-yl}azepane-1-carboxylate]
310	69	No Response	–	–	–	CCOC(=O)N1CCCC(N2CCC(c3cncnc3OC)CC2)CC1 (stereo not drawn) [Example 51, Ethyl 4-[4-(4-methoxypyrimidin-5-yl)piperidin-1-yl]azepane-1-carboxylate]
190	87	No Response	–	–	–	CCOC(=O)N1CCCC(N2CCC(c3cccnc3N(C)C)CC2)CC1 (stereo not drawn) [Example 65, Ethyl 4-{4-[2-(dimethylamino)pyridin-3-yl]piperidin-1-yl}azepane-1-carboxylate]
750	67	No Response	–	–	–	CCOC(=O)N1CCCC(N2CCC(n3nccc3COC)CC2)CC1 (stereo not drawn) [Example 23, Ethyl 4-{4-[5-(methoxymethyl)-1H-pyrazol-1-yl]piperidin-1-yl}azepane-1-carboxylate]
520	82	–	> 10000	28	–	CCOC(=O)N1CCCC(N2CCC(n3nccc3C)CC2)CC1 (stereo not drawn) [Example 12, Ethyl 4-[4-(5-methyl-1H-pyrazol-1-yl)piperidin-1-yl]azepane-1-carboxylate]
2260	30	No Response	–	–	–	CCOC(=O)N1CCC(N2CCC(c3ccncc3)CC2)CC1 [Example 31, Ethyl 4-[4-(pyridin-4-yl)piperidin-1-yl]piperidine-1-carboxylate]
20	94	–	180	–	62	CCOC(=O)N1CCCC(N2CCC(c3cc(C(F)(F)F)cnc3OC)CC2)CC1 (stereo not drawn) [Example 43, Ethyl 4-{4-[2-methoxy-5-(trifluoromethyl)pyridin-3-yl]piperidin-1-yl}azepane-1-carboxylate]
2360	49	–	> 10000	34	–	CCOC(=O)N1CCC(N2CCC(c3nccn3C)CC2)CC1 [Example 1, Ethyl 4-[4-(1-methyl-1H-imidazol-2-yl)piperidin-1-yl]piperidine-1-carboxylate]
26	91	No response	–	–	–	CCOC(=O)N1CCC[C@H](N2CCC(c3cccnc3OC)CC2)CC1 [Example 85, Ethyl (4S)-4-[4-(2-methoxypyridin-3-yl)piperidin-1-yl]azepane-1-carboxylate]
320	55	No Response	–	–	–	CCOC(=O)N1CCCC(N2CCC(n3nccc3C#N)CC2)CC1 (stereo not drawn) [Example 27, Ethyl 4-[4-(5-cyano-1H-pyrazol-1-yl)piperidin-1-yl]azepane-1-carboxylate]
1500	55	No response	–	–	–	CCOC(=O)N1CCC[C@H](N2CCC(c3nccn3C)CC2)CC1 [Example 83, Ethyl (4S)-4-[4-(1-methyl-1H-imidazol-2-yl)piperidin-1-yl]azepane-1-carboxylate]
210	53	No Response	–	–	–	CCOC(=O)N1CCCC(N2CCC(c3nccnc3N(C)C)CC2)CC1 (stereo not drawn) [Example 49, Ethyl 4-{4-[3-(dimethylamino)pyrazin-2-yl]piperidin-1-yl}azepane-1-carboxylate]
260	54	No Response	–	–	–	CCOC(=O)N1CCCC(N2CCC(c3cccnc3C)CC2)CC1 (stereo not drawn) [Example 41, Ethyl 4-[4-(2-methylpyridin-3-yl)piperidin-1-yl]azepane-1-carboxylate]
400	72	–	> 10000	24	–	CCOC(=O)N1CCCC(N2CCC(n3ccc(C)n3)CC2)CC1 (stereo not drawn) [Example 16, Ethyl 4-[4-(3-methyl-1H-pyrazol-1-yl)piperidin-1-yl]azepane-1-carboxylate]
1050	62	No Response	–	–	–	CCOC(=O)N1CCCC(N2CCC(c3nccn3C)CC2)CC1 (stereo not drawn) [Example 9, Ethyl 4-[4-(1-methyl-1H-imidazol-2-yl)piperidin-1-yl]azepane-1-carboxylate]
3140	35	No Response	–	–	–	CCOC(=O)N1CCCC(N2CCC(c3cccnc3-c3ccnn3C)CC2)CC1 (stereo not drawn) [Example 64, Ethyl 4-{4-[2-(1-methyl-1H-pyrazol-5-yl)pyridin-3-yl]piperidin-1-yl}azepane-1-carboxylate]
530	30	No Response	–	–	–	CCOC(=O)N1CCCC(N2CCC(c3nc(C)cnc3C)CC2)CC1 (stereo not drawn) [Example 59, Ethyl 4-[4-(3,6-dimethylpyrazin-2-yl)piperidin-1-yl]azepane-1-carboxylate]
740	41	No Response	–	–	–	CCOC(=O)N1CCCC(N2CCC(c3cccn(C)c3=O)CC2)CC1 (stereo not drawn) [Example 39, Ethyl 4-[4-(1-methyl-2-oxo-1,2-dihydropyridin-3-yl)piperidin-1-yl]azepane-1-carboxylate]
260	75	–	> 10000	26	–	CCOC(=O)N1CCCC(N2CCC(n3nccc3-c3ccnn3C)CC2)CC1 (stereo not drawn) [Example 7, Ethyl 4-{4-[5-(1-methyl-1H-pyrazol-5-yl)-1H-pyrazol-1-yl]piperidin-1-yl}azepane-1-carboxylate]
630	63	–	> 10000	21	–	CCOC(=O)N1CCCC(N2CCC(n3nccc3C(F)(F)F)CC2)CC1 (stereo not drawn) [Example 69, Ethyl 4-{4-[5-(trifluoromethyl)-1H-pyrazol-1-yl]piperidin-1-yl}azepane-1-carboxylate]
60	80	No Response	–	–	–	CCOC(=O)N1CCCC(N2CCC(c3cccnc3OCC)CC2)CC1 (stereo not drawn) [Example 53, Ethyl 4-[4-(2-ethoxypyridin-3-yl)piperidin-1-yl]azepane-1-carboxylate]
140	74	No Response	–	–	–	CCOC(=O)N1CCCC(N2CCC(n3cccn3)CC2)CC1 (stereo not drawn) [Example 4, Ethyl 4-[4-(1H-pyrazol-1-yl)piperidin-1yl]azepane-1-carboxylate]
1830	29	No Response	–	–	–	CCOC(=O)N1CCC(CN2CC(n3cccn3)C2)CC1 [Example 29, Ethyl 4-{[3-(1H-pyrazol-1-yl)azetidin-1-yl]methyl}piperidine-1-carboxylate]
1050	45	No Response	–	–	–	CCOC(=O)N1CCCC(N2CCC(c3nnccc3OC)CC2)CC1 (stereo not drawn) [Example 71, Ethyl 4-[4-(4-methoxypyridazin-3-yl)piperidin-1-yl]azepane-1-carboxylate]
340	50	No Response	–	–	–	CCOC(=O)N1CCC(CN2CCC(n3nc(C)cc3C)C2)CC1 (stereo not drawn) [Example 79, Ethyl 4-{[3-(3,5-dimethyl-1H-pyrazol-1-yl)pyrrolidin-1-yl]methyl}piperidine-1-carboxylate]

Compound	EC50 (human M4 receptor) [nM]	Emax (human M4 receptor) [%]	M2 EC50 (human M2 receptor)	EC50 (human M2 receptor) [nM]	activation at 10 µM (human M2 receptor) [%]	M2 % RE (human M2 receptor; relative efficacy to an EC100 concentration of acetylcholine) [%]
CCOC(=O)N1CCCC(N2CCC(OC)(c3nccn3C)CC2)CC1 (stereo not drawn) [Example 13, Ethyl 4-[4-methoxy-4-(1-methyl-1H-imidazol-2-yl)piperidin-1-yl]azepane-1-carboxylate]	2880	24	No Response	–	–	–
